Assays:
[1] = tested on: nitric oxide generation in HAEC; test: Intracellular nitric oxide levels by DAF-2DA fluorescence; type: cell-based, human; settings: 2.5 μM, 4 h
Protocol: Intracellular nitric oxide levels were monitored by using the Diaminofluorescein-diacetate (DAF-2DA) fluorescence probe. After the treatments, cells were washed with DPBS and incubated in fresh culture medium without fetal bovine serum (FBS). DAF-2DA was added at a final concentration of 5 μM, and the cells were incubated for 30 minutes. The cells were washed twice with DPBS and maintained in culture medium. Fluorescence was monitored by using Olympus fluorescence microscope with FITC filter (λex=488 nm and […]). Fluorescence intensity was calculated by Image-Pro plus7.0 software.
To gain mechanistic insight on Mito-Esc-mediated protection of endothelial cells from oxidant-induced endothelial cell death, initially we hypothesized that Mito-Esc may augment intracellular nitric oxide generation. To study this, HAEC were treated with both Mito-Esc and esculetin in the presence or absence of H2O2 for a period of 4 h and nitric oxide (NO) levels were monitored by DAF-2 derived green fluorescence. Previously, it has been shown that DAF-2 forms a fluorescent triazole-type product in the presence of an oxidant derived from nitric oxide and oxygen interaction (Proc. Natl. Acad. Sci. USA 99: 11127-11132; 2002.; Am. J. Physiol. Regul. Integ. Comp. Physiol. 286:R344-R431; 2004). […] Next, we investigated the possible role of endothelial nitric oxide synthase (eNOS) in mediating the Mito-Esc induced NO generation in HAEC. For this, endothelial cells were treated with various concentrations of Mito-Esc (1-5 μM) for a period of 8 h. […] To further substantiate the results of DAF fluorescence, eNOS phosphorylation was measured in HAEC incubated with either with H2O2 or Ang-II for 8 h in cells pretreated with Mito-Esc or native esculetin. It was observed that both H2O2 and Ang-II caused a reduction in Phospho eNOS (Ser-1177) levels (FIG. 4D). Ang-II treatment imposed a drastic inhibition of phospho-eNOS levels when compared to H2O2 treatment in endothelial cells (FIG. 4D).

[2] = tested on: AMPK1-α phosphorylation (Thr-172); test: Western blot of AMPK phosphorylation in HAEC; type: cell-based, human
Protocol: Previously, it was shown that AMPK co-immunoprecipitates with cardiac endothelial NO synthase (eNOS) and phosphorylates Ser-1177 in the presence of Ca^2+-calmodulin (CaM) to activate eNOS both in vitro and during ischaemia in rat hearts (FEBS Lett. (1999) 443:285-289). To test whether Mito-Esc mediates increased phosphorylation of eNOS through AMPK activation, initially, HAEC were treated various concentrations of Mito-Esc (1-5 μM) for 8 h and AMPK1-α phosphorylation (Thr-172) levels were measured. […] Next, we investigated the phospho-AMPK1-α levels in HAEC treated with H2O2 in the presence or absence of either Mito-Esc or native esculetin.

[3] = tested on: mitochondrial content in HAEC; test: Mitotracker staining of mitochondrial content; settings: 2.5 μM, 8 h
Protocol: Mitochondrial content in cells was assessed by selectively loading the mitochondria with the red fluorescent dye Mitotracker (Invitrogen, Carlsbad, Calif.).

HAEC aging / senescence = test: Senescence-associated β-galactosidase staining; type: cell-based, human
Protocol: Low and high passage number (which reflects young and aged) endothelial cells (HAEC) cells were treated with various concentrations of H2O2 (50-500 μM)) for 8 h. Cells were washed in PBS, fixed for […] (room temperature) in 2% formaldehyde/0.2% glutaraldehyde, washed, and incubated at 37° C. with fresh senescence associated β-Gal (SA-,β-Gal) stain solution: 1 mg of 5-bromo-4-chloro-3-indolyl β-D-galactoside (X-Gal) per ml (stock=20 mg of dimethylformamide per ml)/40 mM citric acid/sodium phosphate, pH 6.0; 5 mM potassium ferrocyanide/5 mM potassium ferricyanide/150 mM NaCl/2 mM MgCl2. Staining was visualized after 24 h using a phase contrast microscope.
To study if Mti-Esc influences vascular aging; we have studied its effect on human aortic endothelial cell (HAEC) aging. For this, we used HAEC of different passages (representing different age) from P6 (young age) to P16 (old age). Also we have grown HAEC with Mito-Esc (2.5 μM) for six generations (six passages) to understand its chronic effects in regulating endothelial cell aging phenomenon.

[4] = tested on: Ang-II-induced H2O2 production in HAEC; test: H2O2 levels by Amplex red assay; type: cell-based, human; settings: Ang-II 500 nM + Mito-Esc 2.5 μM, 16 h
Protocol: Amplex red reagent was used to detect the released H2O2 from cells. […] Immediately, formation of resorufin fluorescence was measured in multi mode reader (PerkinElmer) with λex=540 and λem=585.
(§1) Ang-II is known to increase oxidative stress through increased production of H2O2 (Doughan A K, Harrison D G, Dikalov S I. Circ Res (2008) 102:488-96). […] Further, we assessed the effect of Mito-Esc on H2O2-induced mitochondrial membrane depolarization. HAEC were treated with H2O2 (500 μM) in the presence or absence of Mito-Esc for a period of 16 h and mitochondrial membrane potential was measured using a mitochondrial membrane sensor kit. Mito-Sensor is a cationic dye that fluoresces differently in apoptotic and nonapoptotic cells. […] In apoptotic cells, membrane potentials are altered and the Mito-Sensor dye cannot accumulate in mitochondria and, thus, remain as monomers leading to a green fluorescence.

[5] = tested on: mitochondrial membrane potential in HAEC; test: Mitochondrial transmembrane potential (JC-1 / Mito-Sensor dye); type: cell-based, human; settings: H2O2 500 μM, 16 h
Protocol: Mitochondrial potential was assessed by using the fluorescent potentiometric JC-1 dye. In healthy cells, JC-1 forms J-aggregates that display a strong red fluorescence with excitation of 560 nm and emission wavelength at 595 nm. In apoptotic or unhealthy cells, JC-1 exists as monomers that display a strong green fluorescence with excitation and emission at 485 nm and 535 nm, respectively. At the end of the treatments, cells were washed with Dulbeccos phosphate buffer solution (DPBS) and incubated with JC-1 dye ([…]) for 20 min. Cells were again washed twice with DPBS and maintained in culture medium. Fluorescence was monitored by using Olympus fluorescence microscope with Rhodamine and Fluorescein isothiocyanate (FITC) filters.
as §1, with “kit.” for “kit. Mito-Sensor is a cationic dye that fluoresces differently in apoptotic and nonapoptotic cells.”

[6] = tested on: TNF-α, IFN-γ, MCP-1, Mac-3; test: Serum proinflammatory cytokines and Mac-3 levels in ApoE−/− mice
Protocol: Experiments were conducted in 2-month-old male apolipoprotein E knockout (ApoE^−/−) mice according to the guidelines formulated for care and use of animals in scientific research (ICMR, New Delhi, India) at a CPCSEA (Committee for the Purpose of Control and Supervision of Experiments on Animals) registered animal facility. […] Animals were randomly divided into 3 groups each n=7:1) control 2) Ang-II treatment and 3) Mito-Esculetin+Ang-II treatment. Ang-II and Mito-Esculetin treatment groups received Ang-II (sigma) at a dose of 1.44 mg/kg/day for 6 weeks through sub-cutaneous route where as control group received normal saline. Mito-Esculetin treatment group received the compound at a dose of 0.5 mg/kg/day in normal drinking water. All animals were fed on normal chow throughout the study. After 6 weeks, all groups of animals were sacrificed as per standard protocols for euthanasia.
We further analyzed the vascular remodelling employing histological stains in tissue sections of thoracic aortas. […] In tune with this, we have also measured Mac-3 levels by flow cytometry.

[7] = tested on: caspase-3 and -8 activation in HAEC; test: Caspase-3 and -8 activity in HAEC lysates; type: cell-based, human; settings: 2.5 μM pretreatment
Protocol: Human aortic endothelial cells (HAECs) were obtained from ATCC (Manassas, Va.) and maintained (37° C. 5% CO2) in basal medium supplemented with 10% FBS, VEGF (5 ng/mL), hEGF (5 ng/mL), hFGF (5 ng/mL), IGF-1 (15 ng/mL), ascorbic acid (50 μg/mL), hydrocortisone (1 μg/mL), amphotericin (15 ng/mL), gentamicin (30 ng/mL) and heparin (0.75 Units/mL). Cells used in this study were between passages 4 and 9.
HAEC were washed twice with cold DPBS and lysed in buffer containing 10-mM Tris-HCl, 10-mM NaH2PO4/Na2HPO4 (pH, 7.5). 130-mM NaCl. 1% Triton, and 10-mM sodium pyrophosphate. Cell lysates were incubated with either with caspase-3 fluorogenic substrate (N-acetyl-Asp-Glu-Val-Asp-7-amido-4-methylcoumarin) or caspase-8 fluorogenic substrate (N-acetyl-Ileu-Glu-Thr-Asp-7 amido-4-methylcoumarin) at 37° C. for 1 h. The 7-amido-4-methyl-coumarin liberated was measured in a multi mode reader (PerkinElmer) with λex=380 nm and λem=460 nm.

## O=c1cc(CCCCCCCC[P+](c2ccccc2)(c2ccccc2)c2ccccc2)c2cc(O)c(O)cc2o1.[Br-] [Mito-Esc]
[1]
  DAF-2 fluorescence (NO production), compound alone: greatly enhanced
[1]; H2O2 500 μM
  H2O2-mediated depletion of NO levels: significantly restored
[2]; 1-5 μM, 8 h
  concentration of maximum effect on phospho-AMPK1-α (Thr-172) levels: 2.5 µM
  phospho-AMPK1-α (Thr-172) levels: dose-dependent increase
[2]; Ang-II 500 nM, co-incubation
  Ang-II-mediated inhibition of phospho-AMPK1-α: made cells resistant
[2]; H2O2 500 μM, 2.5 μM, 8 h
  AMPK1-α phosphorylation in the presence of H2O2: greatly enhanced
[3]
  mitochondrial content, treatment alone compared to control: increased mitochondrial content
HAEC aging / senescence; HAEC, 2.5 μM chronic treatment for six passages
  endothelial cell aging (senescence-associated β-gal staining): greatly attenuated
HAEC aging / senescence; P6 (young age) HAEC, H2O2
  H2O2-induced premature senescence: significantly inhibited
[4]
  Ang-II-induced H2O2 levels: completely reversed H2O2 levels to control conditions
[5]
  H2O2-mediated mitochondrial membrane depolarization: significantly rescued
[6]; ApoE−/− mice serum
  Ang-II-induced proinflammatory cytokines (TNF-α, IFN-γ, MCP-1) production: significant inhibition
[6]; ApoE−/− mice, by 30 days of treatment
  Mac-3 levels by flow cytometry: inhibition of Mac3 levels
[7]
  H2O2 and Ang-II-induced caspase-3 and -8 activation: markedly resistant
